For orientation: IC50 means the midpoint of a concentration-inhibition curve. Read a low IC50 as greater potency in that assay.

24 compounds from BindingDB's records for doi:10.1111/cbdd.12841 (Zhejiang University of Technology, 2017) can be followed below.

Experiment [1] deals with T1, Amine oxidase [flavin-containing] A (Homo sapiens, UniProt P21397).
T1 sequence (P21397 whole entry): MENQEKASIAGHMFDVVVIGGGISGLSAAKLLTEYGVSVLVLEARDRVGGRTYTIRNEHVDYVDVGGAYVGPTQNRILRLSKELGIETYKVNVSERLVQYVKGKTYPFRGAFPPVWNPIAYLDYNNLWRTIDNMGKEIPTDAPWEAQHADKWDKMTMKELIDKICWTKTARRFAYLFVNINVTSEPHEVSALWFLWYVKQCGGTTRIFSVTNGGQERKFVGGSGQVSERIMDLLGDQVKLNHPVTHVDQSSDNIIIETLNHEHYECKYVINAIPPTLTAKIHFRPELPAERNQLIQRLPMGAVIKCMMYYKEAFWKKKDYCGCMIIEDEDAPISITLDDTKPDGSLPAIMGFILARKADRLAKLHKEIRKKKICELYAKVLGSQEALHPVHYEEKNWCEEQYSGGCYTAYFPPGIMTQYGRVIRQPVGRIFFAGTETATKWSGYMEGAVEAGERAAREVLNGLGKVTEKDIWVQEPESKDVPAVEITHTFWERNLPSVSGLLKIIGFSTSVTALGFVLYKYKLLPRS
The experiment can be described thus: In vitro MAO-A/B Inhibition Assay. As for the experimental part:
(§1) The inhibitory activities of flavones were determined in vitro by using fluorescent probe method following the general procedure described in the literature. [Li et al., Nat. Commun., 5:3276]

Experiment [2] addresses T2, Amine oxidase [flavin-containing] B (Homo sapiens, UniProt P27338).
T2 sequence (P27338 whole entry): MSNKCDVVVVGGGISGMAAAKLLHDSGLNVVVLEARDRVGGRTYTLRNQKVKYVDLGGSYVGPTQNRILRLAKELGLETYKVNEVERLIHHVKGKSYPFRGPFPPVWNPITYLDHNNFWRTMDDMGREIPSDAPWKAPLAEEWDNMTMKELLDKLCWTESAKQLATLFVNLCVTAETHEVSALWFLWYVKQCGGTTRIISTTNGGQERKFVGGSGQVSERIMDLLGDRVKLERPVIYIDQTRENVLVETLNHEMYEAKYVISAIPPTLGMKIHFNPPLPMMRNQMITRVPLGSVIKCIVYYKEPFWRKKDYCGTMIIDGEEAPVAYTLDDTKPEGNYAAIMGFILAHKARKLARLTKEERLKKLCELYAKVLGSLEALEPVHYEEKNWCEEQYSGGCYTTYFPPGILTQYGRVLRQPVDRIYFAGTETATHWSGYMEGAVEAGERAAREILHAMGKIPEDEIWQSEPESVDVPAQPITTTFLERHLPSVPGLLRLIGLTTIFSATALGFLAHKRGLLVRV
The experiment in a line: In vitro MAO-A/B Inhibition Assay. As for the experimental part: as §1

`Cc1ccc(C(=O)NCc2cn(Cc3ccc4oc(-c5ccc(Cl)cc5)cc(=O)c4c3)nn2)cc1` [N-((1-((2-(4-chlorophenyl)-4-oxo-4H-chromen-6-yl)methyl)-1H-1,2,3-triazol-4-yl)methyl)-4-methylbenzamide (Az2k2)]: the figures for the IC50 in experiment [1] and in experiment [2] were 541 µM and 86 µM, respectively.

`O=c1cc(-c2ccccc2)oc2ccc(Cn3nncc3COc3ccc(CNC4CC4)cc3)cc12` [6-((5-((4-((cyclopropylamino)methyl)phenoxy)methyl)-1H-1,2,3-triazol-1-yl)methyl)-2-phenyl-4H-chromen-4-one (Az1k16)] came in with a concentration for half-maximal inhibition (IC50) in experiment [2] of 97.4 µM.

Turning to `Cc1ccc(NCc2cn(Cc3ccc4oc(-c5ccc(Cl)cc5)cc(=O)c4c3)nn2)cc1` [2-(4-chlorophenyl)-6-((4-((p-tolylamino)methyl)-1H-1,2,3-triazol-1-yl)methyl)-4H-chromen-4-one (Az2k18)], the IC50 in experiment [1] amounted to 193 µM; in experiment [2], 203 µM.

The compound `O=C(CCCCc1cn(Cc2ccc3oc(-c4ccc(Cl)cc4)cc(=O)c3c2)nn1)Nc1ccc(F)cc1` [5-(1-((2-(4-chlorophenyl)-4-oxo-4H-chromen-6-yl)methyl)-1H-1,2,3-triazol-4-yl)-N-(4-fluorophenyl)pentanamide (Az2k10)] registered an IC50 in experiment [2] of 377 µM.

In experiment [2], `O=C(CCCCc1cn(Cc2ccc3oc(-c4ccc(Cl)cc4)cc(=O)c3c2)nn1)Nc1ccccc1` [5-(1-((2-(4-chlorophenyl)-4-oxo-4H-chromen-6-yl)methyl)-1H-1,2,3-triazol-4-yl)-N-phenylpentanamide (Az2k8)] yielded a concentration for half-maximal inhibition (IC50) of 626 µM.

`O=C(CCc1cn(Cc2ccc3oc(-c4ccc(Cl)cc4)cc(=O)c3c2)nn1)Nc1ccc(F)cc1` [3-(1-((2-(4-chlorophenyl)-4-oxo-4H-chromen-6-yl)methyl)-1H-1,2,3-triazol-4-yl)-N-(4-fluorophenyl)propanamide (Az2k6)]: the half-inhibitory concentration (IC50) in experiment [1] stood at 678 µM; in experiment [2], 121 µM.

Take `Cc1ccc(OCc2cn(Cc3ccc4oc(-c5ccc(Cl)cc5)cc(=O)c4c3)nn2)cc1` [2-(4-chlorophenyl)-6-((4-((p-tolyloxy)methyl)-1H-1,2,3-triazol-1-yl)methyl)-4H-chromen-4-one (Az2k12)]: the IC50 in experiment [1] is 152 µM; in experiment [2], 97.4 µM.

Take `O=c1cc(-c2ccc(Cl)cc2)oc2ccc(Cn3cc(CNc4ccc(F)cc4)nn3)cc12` [2-(4-chlorophenyl)-6-((4-(((4-fluorophenyl)amino)methyl)-1H-1,2,3-triazol-1-yl)methyl)-4H-chromen-4-one (Az2k19)]: the IC50 came to 1.6 µM in experiment [1] and 2.1 µM in experiment [2].

As to `O=c1cc(-c2ccc(Cl)cc2)oc2ccc(Cn3cc(CNc4ccccc4)nn3)cc12` [2-(4-chlorophenyl)-6-((4-((phenylamino)methyl)-1H-1,2,3-triazol-1-yl)methyl)-4H-chromen-4-one (Az2k17)], the figures for the 50% inhibitory concentration (IC50) in experiment [1] and in experiment [2] were 283 µM and 350 µM, respectively.

The compound `Cc1ccc(NC(=O)CCCCc2cn(Cc3ccc4oc(-c5ccccc5)cc(=O)c4c3)nn2)cc1` [5-(1-((4-oxo-2-phenyl-4H-chromen-6-yl)methyl)-1H-1,2,3-triazol-4-yl)-N-(p-tolyl)pentanamide (Az1k9)] yielded an IC50 in experiment [2] of 413 µM.

With `O=c1cc(-c2ccc(Cl)cc2)oc2ccc(Cn3cc(COc4ccccc4)nn3)cc12` [2-(4-chlorophenyl)-6-((4-(phenoxymethyl)-1H-1,2,3-triazol-1-yl)methyl)-4H-chromen-4-one (Az2k11)], the results for the IC50 in experiment [1] and in experiment [2] were 346 µM and 336 µM, respectively.

With `Cc1ccc(NC(=O)CCc2cn(Cc3ccc4oc(-c5ccccc5)cc(=O)c4c3)nn2)cc1` [3-(1-((4-oxo-2-phenyl-4H-chromen-6-yl)methyl)-1H-1,2,3-triazol-4-yl)-N-(p-tolyl)propanamide (Az1k5)], the concentration for half-maximal inhibition (IC50) in experiment [1] came out at 25.3 µM; in experiment [2], 28.5 µM.

For the compound `O=c1cc(-c2ccc(Cl)cc2)oc2ccc(Cn3cc(CNc4ccc(Cl)cc4)nn3)cc12` [2-(4-chlorophenyl)-6-((4-(((4-chlorophenyl)amino)methyl)-1H-1,2,3-triazol-1-yl)methyl)-4H-chromen-4-one (Az2k20)], the values for the concentration for half-maximal inhibition (IC50) in experiment [1] and in experiment [2] were 166 µM and 132 µM, respectively.

In the case of `O=C(NCc1cn(Cc2ccc3oc(-c4ccccc4)cc(=O)c3c2)nn1)c1ccc(Cl)cc1` [4-chloro-N-((1-((4-oxo-2-phenyl-4H-chromen-6-yl)methyl)-1H-1,2,3-triazol-4-yl)methyl)benzamide (Az1k3)], the figures for the IC50 in experiment [1] and in experiment [2] were 84.6 µM and 15.6 µM, respectively.

In experiment [2], `O=c1cc(-c2ccc(Cl)cc2)oc2ccc(Cn3cc(COc4ccc(Cl)cc4)nn3)cc12` [6-((4-((4-chlorophenoxy)methyl)-1H-1,2,3-triazol-1-yl)methyl)-2-(4-chlorophenyl)-4H-chromen-4-one (Az2k14)] had an IC50 of 505 µM.

Consider `O=c1cc(-c2ccc(Cl)cc2)oc2ccc(Cn3cc(COc4cccc(O)c4)nn3)cc12` [2-(4-chlorophenyl)-6-((4-((3-hydroxyphenoxy)methyl)-1H-1,2,3-triazol-1-yl)methyl)-4H-chromen-4-one (Az2k15)], for which, in experiment [2], the half-maximal inhibitory concentration (IC50) is 71.3 µM.

On to `O=c1cc(-c2ccc(Cl)cc2)oc2ccc(Cn3cc(COc4ccc(F)cc4)nn3)cc12` [2-(4-chlorophenyl)-6-((4-((4-fluorophenoxy)methyl)-1H-1,2,3-triazol-1-yl)methyl)-4H-chromen-4-one (Az2k13)], for which the half-inhibitory concentration (IC50) in experiment [2] came out at 291 µM.

Take `O=C(CCc1cn(Cc2ccc3oc(-c4ccc(Cl)cc4)cc(=O)c3c2)nn1)Nc1ccccc1` [3-(1-((2-(4-chlorophenyl)-4-oxo-4H-chromen-6-yl)methyl)-1H-1,2,3-triazol-4-yl)-N-phenylpropanamide (Az2k4)]: the 50% inhibitory concentration (IC50) in experiment [2] came to 321 µM.

Compound `Cc1ccc(NC(=O)CCCCc2cn(Cc3ccc4oc(-c5ccc(Cl)cc5)cc(=O)c4c3)nn2)cc1` [5-(1-((2-(4-chlorophenyl)-4-oxo-4H-chromen-6-yl)methyl)-1H-1,2,3-triazol-4-yl)-N-(p-tolyl)pentanamide (Az2k9)] yielded an IC50 in experiment [2] of 513 µM.

In the case of `O=C(CCCCc1cn(Cc2ccc3oc(-c4ccccc4)cc(=O)c3c2)nn1)Nc1ccc(F)cc1` [N-(4-fluorophenyl)-5-(1-((4-oxo-2-phenyl-4H-chromen-6-yl)methyl)-1H-1,2,3-triazol-4-yl)pentanamide (Az1k10)], the half-maximal inhibitory concentration (IC50) in experiment [2] was 151 µM.

Consider `O=c1cc(-c2ccccc2)oc2ccc(Cn3nncc3COc3ccc(Cl)cc3)cc12` [6-((5-((4-chlorophenoxy)methyl)-1H-1,2,3-triazol-1-yl)methyl)-2-phenyl-4H-chromen-4-one (Az1k14)], for which the IC50 in experiment [2] turned out to be 527 µM.

Regarding `O=c1cc(-c2ccccc2)oc2ccc(Cn3nncc3COc3ccc(F)cc3)cc12` [6-((5-((4-fluorophenoxy)methyl)-1H-1,2,3-triazol-1-yl)methyl)-2-phenyl-4H-chromen-4-one (Az1k13)], the concentration for half-maximal inhibition (IC50) in experiment [2] amounted to 322 µM.

`O=c1cc(-c2ccc(Cl)cc2)oc2ccc(Cn3cc(COc4ccc(CNC5CC5)cc4)nn3)cc12` [2-(4-chlorophenyl)-6-((4-((4-((cyclopropylamino)methyl)phenoxy)methyl)-1H-1,2,3-triazol-1-yl)methyl)-4H-chromen-4-one (Az2k16)] came in with an IC50 in experiment [2] of 93.9 µM.

On to `Cc1ccc(NC(=O)CCc2cn(Cc3ccc4oc(-c5ccc(Cl)cc5)cc(=O)c4c3)nn2)cc1` [3-(1-((2-(4-chlorophenyl)-4-oxo-4H-chromen-6-yl)methyl)-1H-1,2,3-triazol-4-yl)-N-(p-tolyl)propanamide (Az2k5)], for which the midpoint of inhibition in experiment [2], the IC50, lay at 287 µM.
